Data published in patent publication US8802732B2, “Lycopene and resveratrol compositions for NK cell activation resulting in anti-neoplastic effect” (Hsiehs Biotech (Singapore) Pte Ltd, priority 2009, dated 2014).

What was measured:
NK cells = test: Cytotoxic activity of spleen NK cells from orally treated mice against B16 melanoma cells (LDH release); type: in vivo, Balb/c mice; conditions: oral daily for one week; lycopene 2 mg/day or resveratrol 4 mg/day
Procedure: NK cells were isolated from Balb/c mice spleen. Each group of mice were killed at day 7 post-feeding of lycopene/resveratrol. The spleens were excised and soaked in 75% ethanol for 5 min, and smeared gently on cell sieves. The single cells were collected by flushing the sieve with RPMI-1640 medium. The derived total spleen cells were isolated by centrifugation at 2000 rpm by placing the mixture on the top of lymphocyte separation solution for 25 min. The white-colored lymphocyte layer was recovered carefully, and washed twice with serum-free RPMI-1640 medium, counted and transferred into 6-well plates as the stock. The lymphocytes thus prepared contains 10-20% of NK cells, and used for NK cell assay [Ref. 18: Zhang (2006)].
The B16 melanoma was excised from a tumor-bearing C57 mouse, and soaked in Hank's medium for 30 min. The adipose and necrotic parts of the tumor were removed, and the tumor was cut into small pieces and treated with RPMI-1640 containing 0.1% type II […] at 4° C. for 12 h. […]
NK cells isolated from mice spleen were mixed with B16 melanoma cells at ratios of 25:1, 50:1 and 100:1, and incubated at 37° C. After 5 h, the lactate dehydrogenase (LDH) activities in 100 μl of culture media were measured as the cytolytic activity of NK cells. Cytotoxicity is calculated according to the following formula. […]

[1] = cited from earlier work

SMILES	NK cytotoxicity change versus control (NK cells)	anti-oxidative activity, higher than vitamin E ([1]; relative to vitamin E) [folds]	anti-oxidative activity, higher than β-carotene ([1]; relative to β-carotene) [folds]
CC(C)=CCC/C(C)=C/C=C/C(C)=C/C=C/C(C)=C/C=C/C=C(C)/C=C/C=C(C)/C=C/C=C(\C)CCC=C(C)C [lycopene]	slight increase (not significantly)	100	3.2
Oc1ccc(C=Cc2cc(O)cc(O)c2)cc1 [resveratrol]	slight increase (not significantly)		
